The nature of the data set: Stability test of crystalline form D of bortezomib in a sealed state at 0-10° C. The data set is classed as physicochemical. As to conditions: for Purity (%): HPLC purity. How it is done:
The crystalline form of bortezomib prepared in Example 2 was subjected to a stability test in a sealed state at a temperature of 0-10° C. for 3.5 months.

In the case of `CC(C)C[C@H](NC(=O)[C@H](Cc1ccccc1)NC(=O)c1cnccn1)B(O)O` [Form D of Formula V, [(1R)-3-methyl-1-[[(2S)-1-oxo-3-phenyl-2-[(pyrazinylcarbonyl)amino]propyl]amino]butyl] boronic acid], the “(S, S) and (R, R) diastereomer (%)” value reads like this: (1 month) 0.046%; (1 week) 0.068%; (2 month) 0.039%; (2 week) 0.042%; (3.5 month) 0.048%. The “Stability (HPLC purity and crystalline form)” value (3.5 months) is “maintained in a stable state without any change in HPLC purity and crystalline form”. Moreover, the “Purity (%)” value is, setting by setting: (1 month) 99.80%; (1 week) 99.61%; (2 month) 99.74%; (2 week) 99.87%; (3.5 month) 99.69%.
